Read-outs that look alike come from different tables or passages of the source.
Columns and labels:
[1] = cited from earlier work
variety of cell lines = assay: cytotoxicity of clean fumarate samples following precipitation; assay type: cell-based; conditions: precipitated, washed and redissolved samples, even at high concentrations (FIG. 10)
Protocol: FIG. 10 depicts the results of cytotoxicity experiments performed using samples of precipitated, washed and redissolved sodium fumarate generated in accordance with disclosed embodiments
The clean fumarate samples following precipitation were tested for cytotoxicity using a variety of cell lines. FIG. 10 depicts the result of the cell line experiments.

Row | SMILES | maximal mole fraction in n-heptane ([1]; 14.8° C.) | maximal mole fraction in n-heptane ([1]; −29.2° C.) | cytotoxicity (variety of cell lines)
1 | CC(=O)O [acetic acid] | 0.935 | 0.02 | 
2 | O=C([O-])/C=C/[13C](=O)[O-].[Na+].[Na+] [sodium fumarate, sodium fumarate-1-^13C] |  |  | No toxicity was visible

Source: patent publication US20230295058A1, “SYSTEMS AND METHODS FOR GENERATION OF HYPERPOLARIZED COMPOUNDS USING PARAHYDROGEN” (NVISION IMAGING TECHNOLOGIES GMBH, priority 2020, published 2023)
